Test results taken from ChEMBL document CHEMBL1671626, “In vitro profiling of ceftaroline against a collection of recent bacterial clinical isolates from across the United States” (2008).
Converted amounts (≈) assume the structure as drawn.

What was measured:
Format in all cases: functional
[1] = system: Enterobacteriaceae; assay: Antibacterial activity against ceftazidime-susceptible Enterobacteriaceae by CLSI M7-A7 broth microdilution method
[2] = system: Enterobacteriaceae; assay: Antibacterial activity against ceftazidime-susceptible Enterobacteriaceae assessed as susceptible isolates by CLSI M7-A7 broth microdilution method
[3] = system: Enterobacteriaceae; assay: Antibacterial activity against ceftazidime-susceptible Enterobacteriaceae assessed as resistant isolates by CLSI M7-A7 broth microdilution method
[4] = system: Enterobacteriaceae; assay: Antibacterial activity against ceftazidime-nonsusceptible Enterobacteriaceae by CLSI M7-A7 broth microdilution method
[5] = system: Enterobacteriaceae; assay: Antibacterial activity against ceftazidime-nonsusceptible Enterobacteriaceae assessed as susceptible isolates by CLSI M7-A7 broth microdilution method
[6] = system: Enterobacteriaceae; assay: Antibacterial activity against ceftazidime-nonsusceptible Enterobacteriaceae assessed as resistant isolates by CLSI M7-A7 broth microdilution method
[7] = system: Citrobacter freundii; assay: Antibacterial activity against ceftazidime-susceptible Citrobacter freundii by CLSI M7-A7 broth microdilution method
[8] = system: Citrobacter freundii; assay: Antibacterial activity against ceftazidime-susceptible Citrobacter freundii assessed as susceptible isolates by CLSI M7-A7 broth microdilution method
[9] = system: Citrobacter freundii; assay: Antibacterial activity against ceftazidime-susceptible Citrobacter freundii assessed as resistant isolates by CLSI M7-A7 broth microdilution method
[10] = system: Citrobacter freundii; assay: Antibacterial activity against ceftazidime-nonsusceptible Citrobacter freundii by CLSI M7-A7 broth microdilution method
[11] = system: Citrobacter freundii; assay: Antibacterial activity against ceftazidime-nonsusceptible Citrobacter freundii assessed as susceptible isolates by CLSI M7-A7 broth microdilution method
[12] = system: Citrobacter freundii; assay: Antibacterial activity against ceftazidime-nonsusceptible Citrobacter freundii assessed as resistant isolates by CLSI M7-A7 broth microdilution method
[13] = system: Enterobacter cloacae; assay: Antibacterial activity against ceftazidime-susceptible Enterobacter cloacae by CLSI M7-A7 broth microdilution method
[14] = system: Enterobacter cloacae; assay: Antibacterial activity against ceftazidime-susceptible Enterobacter cloacae assessed as susceptible isolates by CLSI M7-A7 broth microdilution method
[15] = system: Enterobacter cloacae; assay: Antibacterial activity against ceftazidime-susceptible Enterobacter cloacae assessed as resistant isolates by CLSI M7-A7 broth microdilution method
[16] = system: Enterobacter cloacae; assay: Antibacterial activity against ceftazidime-nonsusceptible Enterobacter cloacae by CLSI M7-A7 broth microdilution method
[17] = system: Enterobacter cloacae; assay: Antibacterial activity against ceftazidime-nonsusceptible Enterobacter cloacae assessed as susceptible isolates by CLSI M7-A7 broth microdilution method
[18] = system: Enterobacter cloacae; assay: Antibacterial activity against ceftazidime-nonsusceptible Enterobacter cloacae assessed as resistant isolates by CLSI M7-A7 broth microdilution method
[19] = system: Escherichia coli; assay: Antibacterial activity against ceftazidime-susceptible Escherichia coli by CLSI M7-A7 broth microdilution method
[20] = system: Escherichia coli; assay: Antibacterial activity against ceftazidime-susceptible Escherichia coli assessed as susceptible isolates by CLSI M7-A7 broth microdilution method
[21] = system: Escherichia coli; assay: Antibacterial activity against ceftazidime-susceptible Escherichia coli assessed as resistant isolates by CLSI M7-A7 broth microdilution method
[22] = system: Escherichia coli; assay: Antibacterial activity against ceftazidime-nonsusceptible Escherichia coli by CLSI M7-A7 broth microdilution method
[23] = system: Escherichia coli; assay: Antibacterial activity against ceftazidime-nonsusceptible Escherichia coli assessed as susceptible isolates by CLSI M7-A7 broth microdilution method
[24] = system: Escherichia coli; assay: Antibacterial activity against ceftazidime-nonsusceptible Escherichia coli assessed as resistant isolates by CLSI M7-A7 broth microdilution method
[25] = system: Klebsiella pneumoniae; assay: Antibacterial activity against ceftazidime-susceptible Klebsiella pneumoniae by CLSI M7-A7 broth microdilution method
[26] = system: Klebsiella pneumoniae; assay: Antibacterial activity against ceftazidime-susceptible Klebsiella pneumoniae assessed as susceptible isolates by CLSI M7-A7 broth microdilution method
[27] = system: Klebsiella pneumoniae; assay: Antibacterial activity against ceftazidime-susceptible Klebsiella pneumoniae assessed as resistant isolates by CLSI M7-A7 broth microdilution method
[28] = system: Klebsiella pneumoniae; assay: Antibacterial activity against ceftazidime-nonsusceptible Klebsiella pneumoniae by CLSI M7-A7 broth microdilution method
[29] = system: Klebsiella pneumoniae; assay: Antibacterial activity against ceftazidime-nonsusceptible Klebsiella pneumoniae assessed as susceptible isolates by CLSI M7-A7 broth microdilution method
[30] = system: Klebsiella pneumoniae; assay: Antibacterial activity against ceftazidime-nonsusceptible Klebsiella pneumoniae assessed as resistant isolates by CLSI M7-A7 broth microdilution method
[31] = system: Morganella morganii; assay: Antibacterial activity against ceftazidime-susceptible Morganella morganii by CLSI M7-A7 broth microdilution method
[32] = system: Morganella morganii; assay: Antibacterial activity against ceftazidime-susceptible Morganella morganii assessed as susceptible isolates by CLSI M7-A7 broth microdilution method
[33] = system: Morganella morganii; assay: Antibacterial activity against ceftazidime-susceptible Morganella morganii assessed as resistant isolates by CLSI M7-A7 broth microdilution method
[34] = system: Proteus mirabilis; assay: Antibacterial activity against ceftazidime-susceptible Proteus mirabilis by CLSI M7-A7 broth microdilution method
[35] = system: Proteus mirabilis; assay: Antibacterial activity against ceftazidime-susceptible Proteus mirabilis assessed as susceptible isolates by CLSI M7-A7 broth microdilution method
[36] = system: Proteus mirabilis; assay: Antibacterial activity against ceftazidime-susceptible Proteus mirabilis assessed as resistant isolates by CLSI M7-A7 broth microdilution method
[37] = system: Serratia marcescens; assay: Antibacterial activity against ceftazidime-susceptible Serratia marcescens by CLSI M7-A7 broth microdilution method
[38] = system: Serratia marcescens; assay: Antibacterial activity against ceftazidime-susceptible Serratia marcescens assessed as susceptible isolates by CLSI M7-A7 broth microdilution method
[39] = system: Serratia marcescens; assay: Antibacterial activity against ceftazidime-susceptible Serratia marcescens assessed as resistant isolates by CLSI M7-A7 broth microdilution method
[40] = system: Acinetobacter; assay: Antibacterial activity against multidrug-resistant Acinetobacter by CLSI M7-A7 broth microdilution method
[41] = system: Acinetobacter; assay: Antibacterial activity against multidrug-resistant Acinetobacter assessed as susceptible isolates by CLSI M7-A7 broth microdilution method
[42] = system: Acinetobacter; assay: Antibacterial activity against multidrug-resistant Acinetobacter assessed as resistant isolates by CLSI M7-A7 broth microdilution method
[43] = system: Acinetobacter; assay: Antibacterial activity against imipenem-susceptible Acinetobacter by CLSI M7-A7 broth microdilution method
[44] = system: Acinetobacter; assay: Antibacterial activity against imipenem-susceptible Acinetobacter assessed as susceptible isolates by CLSI M7-A7 broth microdilution method
[45] = system: Acinetobacter; assay: Antibacterial activity against imipenem-susceptible Acinetobacter assessed as resistant isolates by CLSI M7-A7 broth microdilution method
[46] = system: Haemophilus influenzae; assay: Antibacterial activity against beta lactamase-negative Haemophilus influenzae by CLSI M7-A7 broth microdilution method
[47] = system: Haemophilus influenzae; assay: Antibacterial activity against beta lactamase-negative Haemophilus influenzae assessed as susceptible isolates by CLSI M7-A7 broth microdilution method
[48] = system: Haemophilus influenzae; assay: Antibacterial activity against beta lactamase-negative Haemophilus influenzae assessed as resistant isolates by CLSI M7-A7 broth microdilution method
[49] = system: Haemophilus influenzae; assay: Antibacterial activity against beta lactamase-positive Haemophilus influenzae by CLSI M7-A7 broth microdilution method
[50] = system: Haemophilus influenzae; assay: Antibacterial activity against beta lactamase-positive Haemophilus influenzae assessed as susceptible isolates by CLSI M7-A7 broth microdilution method
[51] = system: Haemophilus influenzae; assay: Antibacterial activity against beta lactamase-positive Haemophilus influenzae assessed as resistant isolates by CLSI M7-A7 broth microdilution method
[52] = system: Providencia sp.; assay: Antibacterial activity against ceftazidime-susceptible Providencia sp. by CLSI M7-A7 broth microdilution method
[53] = system: Providencia sp.; assay: Antibacterial activity against ceftazidime-susceptible Providencia sp. assessed as susceptible isolates by CLSI M7-A7 broth microdilution method
[54] = system: Providencia sp.; assay: Antibacterial activity against ceftazidime-susceptible Providencia sp. assessed as resistant isolates by CLSI M7-A7 broth microdilution method

CCN1CCN(C(=O)N[C@@H](C(=O)N[C@@H]2C(=O)N3[C@@H]2SC(C)(C)[C@@H]3C(=O)O)c2ccccc2)C(=O)C1=O [PIPERACILLIN]
MIC50 [1]: 2 µg/mL (≈ 3.86 µM)
MIC90 [1]: 4 µg/mL (≈ 7.73 µM)
Activity [2]: 97%
Activity [3]: 1.6%
MIC50 [4]: 32 µg/mL (≈ 61.8 µM)
MIC90 [4]: > 64 µg/mL
Activity [5]: 43.2%
Activity [6]: 38.6%
MIC50 [7]: 2 µg/mL (≈ 3.86 µM)
MIC90 [7]: 4 µg/mL (≈ 7.73 µM)
Activity [8]: 100%
Activity [9]: 0%
MIC50 [10]: 32 µg/mL (≈ 61.8 µM)
MIC90 [10]: > 64 µg/mL
Activity [11]: 24.2%
Activity [12]: 39.4%
MIC50 [13]: 2 µg/mL (≈ 3.86 µM)
MIC90 [13]: 4 µg/mL (≈ 7.73 µM)
Activity [14]: 98%
Activity [15]: 2%
MIC50 [16]: > 64 µg/mL
MIC90 [16]: > 64 µg/mL
Activity [17]: 25.7%
Activity [18]: 54.3%
MIC50 [19]: 1 µg/mL (≈ 1.93 µM)
MIC90 [19]: 4 µg/mL (≈ 7.73 µM)
Activity [20]: 96.5%
Activity [21]: 2.3%
MIC50 [22]: 16 µg/mL (≈ 30.9 µM)
MIC90 [22]: > 64 µg/mL
Activity [23]: 68.3%
Activity [24]: 17.5%
MIC50 [25]: 2 µg/mL (≈ 3.86 µM)
MIC90 [25]: 8 µg/mL (≈ 15.5 µM)
Activity [26]: 97.1%
Activity [27]: 0.5%
MIC50 [28]: > 64 µg/mL
MIC90 [28]: > 64 µg/mL
Activity [29]: 24.2%
Activity [30]: 62.1%
MIC [31]: ≤ 0.5 µg/mL
MIC50 [31]: ≤ 0.5 µg/mL
MIC90 [31]: 1 µg/mL (≈ 1.93 µM)
Activity [32]: 100%
Activity [33]: 0%
MIC [34]: ≤ 0.5 µg/mL
MIC50 [34]: ≤ 0.5 µg/mL
MIC90 [34]: 1 µg/mL (≈ 1.93 µM)
Activity [35]: 100%
Activity [36]: 0%
MIC50 [37]: 2 µg/mL (≈ 3.86 µM)
MIC90 [37]: 16 µg/mL (≈ 30.9 µM)
Activity [38]: 93.2%
Activity [39]: 3.4%
MIC50 [40]: > 64 µg/mL
Activity [41]: 0%
Activity [42]: 87.5%
MIC50 [43]: 8 µg/mL (≈ 15.5 µM)
MIC90 [43]: > 64 µg/mL
Activity [44]: 68.1%
Activity [45]: 21.3%
MIC [46]: ≤ 0.03 µg/mL
MIC50 [46]: ≤ 0.03 µg/mL
MIC90 [46]: 0.06 µg/mL (≈ 0.116 µM)
Activity [47]: 100%
Activity [48]: 0%
MIC [49]: ≤ 0.03 µg/mL
MIC50 [49]: ≤ 0.03 µg/mL
MIC90 [49]: 0.06 µg/mL (≈ 0.116 µM)
Activity [50]: 99%
Activity [51]: 1%
MIC50 [52]: 2 µg/mL (≈ 3.86 µM)
MIC90 [52]: 16 µg/mL (≈ 30.9 µM)
Activity [53]: 92.6%
Activity [54]: 3.7%
